According to ChEMBL document CHEMBL4411300 (Eur J Med Chem, 2019):
Activity calls are given as the source filed them. The rule behind the calls is not given here.

How the values were obtained:
Trypanosoma cruzi [1] = assay: Antitrypanosomal activity against Trypanosoma cruzi MHOM/Pe/2011/Arequipa DTU 5 trypomastigotes infected in Balb/c mouse assessed as reduction in Ig-G level in serum at 20 mg/kg, po once daily for 5 consecutive days starting from day 10 post infection measured on day 16 post infection by ELISA; type: functional, organism-based
Trypanosoma cruzi [2] = assay: Antitrypanosomal activity against Trypanosoma cruzi MHOM/Pe/2011/Arequipa DTU 5 epimastigotes assessed as effect on parasite glycolytic pathway by measuring decrease in ethanol excretion at IC25 after 72 hrs by 1H NMR method; type: functional; design: scale not given: the % may be the effect or the level left
[3] = Hepatotoxicity in Balb/c mouse infected with Trypanosoma cruzi MHOM/Pe/2011/Arequipa DTU 5 trypomastigotes assessed as increase in ratio of serum ALT to GPT level at 20 mg/kg, po once daily for 5 consecutive days starting from day 10 post infection measured on day 127 post infection by biochemical analysis relative to control; type: toxicity, organism-based; conditions: in vivo
[4] = (§1) Cardiotoxicity in Balb/c mouse infected with Trypanosoma cruzi MHOM/Pe/2011/Arequipa DTU 5 trypomastigotes assessed as change in serum LDH level at 20 mg/kg, po once daily for 5 consecutive days starting from day 10 post infection measured on day 16 post infection by biochemical analysis (reference value: 3275 U/L); type: toxicity, organism-based; conditions: in vivo
[5] = target: Superoxide dismutase [Cu-Zn] (Homo sapiens, UniProt P00441); assay: Inhibition of human erythrocyte CuZn-SOD by UV-Visible spectrophotometric method
Superoxide dismutase [Cu-Zn], sequence (P00441 whole entry): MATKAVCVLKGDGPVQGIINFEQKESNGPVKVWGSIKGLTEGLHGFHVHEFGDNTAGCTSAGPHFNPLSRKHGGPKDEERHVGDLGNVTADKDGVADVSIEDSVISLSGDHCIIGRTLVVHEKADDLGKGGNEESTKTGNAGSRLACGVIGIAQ

[6] = Hepatotoxicity in Balb/c mouse infected with Trypanosoma cruzi MHOM/Pe/2011/Arequipa DTU 5 trypomastigotes assessed as increase in serum ALT to GPT level at 20 mg/kg, po once daily for 5 consecutive days starting from day 10 post infection measured on day 16 post infection relative to control; type: toxicity, organism-based; conditions: in vivo
Trypanosoma cruzi [7] = assay: Inhibition of Trypanosoma cruzi MHOM/Pe/2011/Arequipa DTU 5 epimastigotes Fe-SOD at 50 uM by UV-Visible spectrophotometric method relative to control
Trypanosoma cruzi [8] = assay: Trypanocidal activity against Trypanosoma cruzi MHOM/Pe/2011/Arequipa DTU 5 epimastigotes after 48 to 72 hrs by resazurin dye based assay; type: functional, organism-based
Vero = assay: Cytotoxicity against African green monkey Vero cells assessed as reduction in cell viability after 48 to 72 hrs by resazurin dye based assay; conditions: Chlorocebus sabaeus
[9] = Nephrotoxicity in Balb/c mouse infected with Trypanosoma cruzi MHOM/Pe/2011/Arequipa DTU 5 trypomastigotes assessed as serum uric acid level at 20 mg/kg, po once daily for 5 consecutive days starting from day 75 post infection measured on day 127 post infection (reference value: 4.8 mg/dl); type: toxicity, organism-based; conditions: in vivo
[10] = Selectivity index, ratio of IC50 for African green monkey Vero cells to IC50 for Trypanosoma cruzi IRHOD/CO/2008/SN3 DTU 1 epimastigotes; type: toxicity; conditions: read-out: Ratio IC50
[11] = Cardiotoxicity in Balb/c mouse infected with Trypanosoma cruzi MHOM/Pe/2011/Arequipa DTU 5 trypomastigotes assessed as change in serum LDH level at 20 mg/kg, po once daily for 5 consecutive days starting from day 75 post infection measured on day 81 post infection (reference value: 5951 U/L); type: toxicity, organism-based; conditions: in vivo
Trypanosoma cruzi [12] = assay: Antitrypanosomal activity against Trypanosoma cruzi MHOM/Pe/2011/Arequipa DTU 5 epimastigotes assessed as effect on parasite glycolytic pathway by measuring increase in glycerol excretion at IC25 after 72 hrs by 1H NMR method; type: functional, organism-based
Trypanosoma cruzi [13] = assay: Trypanocidal activity against Trypanosoma cruzi MHOM/Pe/2011/Arequipa DTU 5 amastigotes infected in African green monkey Vero cells assessed as reduction in number of amastigotes per infected cells at log -0.41 to 1.7 after 72 hrs by Giemsa-staining based assay; type: functional, organism-based
Trypanosoma cruzi [14] = assay: Antitrypanosomal activity against Trypanosoma cruzi MHOM/Pe/2011/Arequipa DTU 5 epimastigotes assessed as effect on parasite glycolytic pathway by measuring decrease in pyruvate excretion at IC25 after 72 hrs by 1H NMR method; type: functional, organism-based
[15] = Inhibition of Trypanosoma cruzi MHOM/Pe/2011/Arequipa DTU 5 epimastigotes Fe-SOD by UV-Visible spectrophotometric method
Trypanosoma cruzi [16] = assay: Antitrypanosomal activity against Trypanosoma cruzi MHOM/Pe/2011/Arequipa DTU 5 epimastigotes assessed as effect on parasite glycolytic pathway by measuring decrease in acetate excretion at IC25 after 72 hrs by 1H NMR method; type: functional, organism-based
[17] = Selectivity index, ratio of IC50 for African green monkey Vero cells to IC50 for Trypanosoma cruzi IRHOD/CO/2008/SN3 DTU 1 trypomastigotes derived from infected Balb/c albino mouse; type: toxicity; conditions: read-out: Ratio IC50
Trypanosoma cruzi [18] = assay: (§2) Antitrypanosomal activity against Trypanosoma cruzi MHOM/Pe/2011/Arequipa DTU 5 trypomastigotes infected in Balb/c mouse assessed as reduction in parasitaemia level at 20 mg/kg, po once daily for 5 consecutive days starting from day 10 post infection measured every 2 to 3 days up to day 50 post infection starting from day 7 post infection by Neubauer chamber method; type: functional, organism-based
[19] = Selectivity index, ratio of IC50 for African green monkey Vero cells to IC50 for Trypanosoma cruzi TINF/CH/1956/Tulahuen DTU 6 trypomastigotes derived from infected Balb/c albino mouse; type: toxicity; conditions: read-out: Ratio IC50
Trypanosoma cruzi [20] = assay: as §2, with “on” for “every 2 to 3 days up to”, “23” for “50 post infection starting from day 7”, “method relative to control” for “method”; type: functional
Trypanosoma cruzi [21] = assay: (§3) Antitrypanosomal activity against Trypanosoma cruzi MHOM/Pe/2011/Arequipa DTU 5 trypomastigotes infected in Balb/c mouse assessed as parasite-free bone marrow at 20 mg/kg, po pretreated once daily for 5 consecutive days starting from day 75 post infection followed by cyclophosphamide-induced immunosuppression on day 100 post infection every 4 days for a maximum of 3 doses measured on day 127 post infection by PCR method; type: functional
[22] = Hepatotoxicity in Balb/c mouse infected with Trypanosoma cruzi MHOM/Pe/2011/Arequipa DTU 5 trypomastigotes assessed as increase in alkaline phosphatase level at 20 mg/kg, po once daily for 5 consecutive days starting from day 75 post infection measured on day 127 post infection relative to control; type: toxicity, organism-based; conditions: in vivo
Trypanosoma cruzi [23] = assay: as §3, with “adipose tissue” for “bone marrow”; type: functional
Trypanosoma cruzi [24] = assay: as §2, with “on” for “every 2 to 3 days up to”, “40” for “50 post infection starting from day 7”; type: functional, organism-based
Trypanosoma cruzi [25] = assay: as §3, with “muscle” for “bone marrow”; type: functional, organism-based
Trypanosoma cruzi [26] = assay: as §3, with “stomach” for “bone marrow”; type: functional, organism-based
[27] = Hepatotoxicity in Balb/c mouse infected with Trypanosoma cruzi MHOM/Pe/2011/Arequipa DTU 5 trypomastigotes assessed as change in total bilirubin level at 20 mg/kg, po once daily for 5 consecutive days starting from day 75 post infection measured on day 127 post infection (reference value: 0.2 mg/dl); type: toxicity, organism-based; conditions: in vivo
[28] = as §1, with “decrease” for “change”, “relative to control” for “(reference value: 3275 U/L)”; type: toxicity, organism-based; design: scale not given: the % may be the effect or the level left; conditions: in vivo
[29] = Hepatotoxicity in Balb/c mouse infected with Trypanosoma cruzi MHOM/Pe/2011/Arequipa DTU 5 trypomastigotes assessed as decrease in serum ALT to GPT level at 20 mg/kg, po once daily for 5 consecutive days starting from day 10 post infection measured on day 16 post infection relative to control; type: toxicity, organism-based; design: scale not given: the % may be the effect or the level left; conditions: in vivo

| Compound | Activity (Trypanosoma cruzi [1]) | Activity (Trypanosoma cruzi [2]) [%] | Activity [4] [U/L] | IC50 [5] [µM] | Activity [6] [%] | IC50 (Trypanosoma cruzi [8]) [µM] | IC50 (Vero) [µM] | selectivity ratio [10] | Activity (Trypanosoma cruzi [12]) | Activity (Trypanosoma cruzi [13]) | Activity (Trypanosoma cruzi [14]) | IC50 [15] [µM] | Activity (Trypanosoma cruzi [16]) | selectivity ratio [17] | selectivity ratio [19] | Activity (Trypanosoma cruzi [20]) | Activity (Trypanosoma cruzi [21]) [%] | Activity (Trypanosoma cruzi [23]) [%] | further results |
| --- | --- | --- | --- | --- | --- | --- | --- | --- | --- | --- | --- | --- | --- | --- | --- | --- | --- | --- | --- |
| Cl.Cl.Cl.Cl.Cl.Cl.c1ccc2nc(CNCCN(CCNCc3ccc4ccccc4n3)CCNCc3ccc4ccccc4n3)ccc2c1 | inactive | 38 | 3275 | > 100 | > 40 | 15.1 | 1560 | 112 | Active | Active | Active | 29 | Active | 1560 | 890 | – | – | – | Activity [3]: <= 30%; inhibition (Trypanosoma cruzi [7]): 82%; Activity [9]: 4.8 mg/dL; Activity [11]: 6679 U/L; Activity (Trypanosoma cruzi [18]): inactive |
| O=C(Cn1ccnc1[N+](=O)[O-])NCc1ccccc1 [BENZNIDAZOLE] | – | – | 3275 | – | > 40 | – | – | – | – | – | – | – | – | – | – | Active | 75 | 51.2 | Activity [22]: <= 20% |
| Cl.Cl.Cl.NCCN(CCN)CCNCc1ccc2c(c1)Cc1ccccc1-2 | Active | 31 | – | > 100 | – | 26.6 | 1770 | 91.3 | Active | Active | Active | 56.9 | Active | 142 | 100 | 72% | 5.9 | 16.3 | Activity (Trypanosoma cruzi [24]): Active; Activity (Trypanosoma cruzi [25]): Active; Activity (Trypanosoma cruzi [26]): Active; Activity [27]: 0.2 mg/dL; Activity [28]: <= 10%; Activity [29]: <= 10% |
